Data on eleven compounds can be found in US9096591B2, “Tetracyclic compounds” (Medivation Technologies, Inc., priority 2007, dated 2015).

The term inhibition denotes the relative decrease from the control value, in per cent.

For assay [1], the target named is T1, human recombinant histamine H2 receptor (Homo sapiens, UniProt P25021).
T1 construct: expressed in transfected cells; host or cells: CHO-K1 cells
Nature of the assay: Histamine H2 radioligand binding ([125I]Aminopotentidine). Summed up: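 This radioligand binding assay measured displacement of [125I]Aminopotentidine from recombinant human histamine H2 receptors. Compounds were dissolved in 1% DMSO vehicle. Specific binding was calculated by subtracting non-specific binding, defined using 3 μM Tiotidine, and activity was reported as percentage inhibition of that specific binding.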

In assay [2] the target is T2, human recombinant histamine H1 receptor (Homo sapiens, UniProt P35367).
T2 construct: expressed in transfected cells; host or cells: CHO cells
Nature of the assay: Histamine H1 radioligand binding ([3H]Pyrilamine). Summed up: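 CHO-expressed receptor in modified Tris-HCl buffer (50 mM, pH 7.4; 2 mM MgCl2, 100 mM NaCl, 250 mM sucrose); bound ligand measured after filtration and washing.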

Assay [3] addresses T3, human recombinant dopamine D2L receptor (Homo sapiens, UniProt P14416).
T3 construct: expressed in transfected cells; host or cells: CHO cells
Nature of the assay: Dopamine D2L radioligand binding ([3H]Spiperone). The conditions noted are these: percent inhibition of specific binding. How it is done: Non-specific binding was estimated in the presence of 10 μM Haloperidol. Receptor proteins were filtered and washed, the filters were then counted to determine [^3H]Spiperone specifically bound. […] Biochemical assay results are presented as the percent inhibition of specific binding in Table 6.

Assay [4] has as its target T4, human recombinant adrenergic α2B receptor (Homo sapiens, UniProt P18089).
T4 construct: expressed in transfected cells; host or cells: CHO-K1 cells
T4 sequence (P18089 1-450): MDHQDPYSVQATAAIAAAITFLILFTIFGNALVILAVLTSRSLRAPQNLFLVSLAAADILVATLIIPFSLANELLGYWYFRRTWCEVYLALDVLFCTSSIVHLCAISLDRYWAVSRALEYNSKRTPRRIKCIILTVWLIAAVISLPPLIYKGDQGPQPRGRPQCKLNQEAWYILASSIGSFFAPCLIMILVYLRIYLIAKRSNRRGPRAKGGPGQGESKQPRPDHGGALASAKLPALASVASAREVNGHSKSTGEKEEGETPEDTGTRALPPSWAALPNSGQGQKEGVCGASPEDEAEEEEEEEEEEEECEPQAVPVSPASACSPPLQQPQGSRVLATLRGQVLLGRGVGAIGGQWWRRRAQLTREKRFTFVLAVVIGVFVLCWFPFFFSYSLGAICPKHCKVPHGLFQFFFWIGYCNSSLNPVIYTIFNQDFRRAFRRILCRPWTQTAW
Put plainly: Adrenergic α2B radioligand binding ([3H]Rauwolscine). The conditions noted are these: percent inhibition of specific binding. Further details: Inhibition of ligand binding, Adren. alpha2B: concentration or dose not given beside the values. A digest of the protocol: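 Incubation ran 60 minutes at 25 °C in modified Tris-HCl buffer (50 mM, pH 7.4, 12.5 mM MgCl2, 1 mM EDTA, 0.2% BSA) using CHO-K1-expressed human receptor.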

The target in assay [5] is T5, human recombinant adrenergic α1D receptor (Homo sapiens, UniProt P25100).
T5 construct: expressed in transfected cells; host or cells: HEK-293 cells
T5 sequence (P25100 1-572): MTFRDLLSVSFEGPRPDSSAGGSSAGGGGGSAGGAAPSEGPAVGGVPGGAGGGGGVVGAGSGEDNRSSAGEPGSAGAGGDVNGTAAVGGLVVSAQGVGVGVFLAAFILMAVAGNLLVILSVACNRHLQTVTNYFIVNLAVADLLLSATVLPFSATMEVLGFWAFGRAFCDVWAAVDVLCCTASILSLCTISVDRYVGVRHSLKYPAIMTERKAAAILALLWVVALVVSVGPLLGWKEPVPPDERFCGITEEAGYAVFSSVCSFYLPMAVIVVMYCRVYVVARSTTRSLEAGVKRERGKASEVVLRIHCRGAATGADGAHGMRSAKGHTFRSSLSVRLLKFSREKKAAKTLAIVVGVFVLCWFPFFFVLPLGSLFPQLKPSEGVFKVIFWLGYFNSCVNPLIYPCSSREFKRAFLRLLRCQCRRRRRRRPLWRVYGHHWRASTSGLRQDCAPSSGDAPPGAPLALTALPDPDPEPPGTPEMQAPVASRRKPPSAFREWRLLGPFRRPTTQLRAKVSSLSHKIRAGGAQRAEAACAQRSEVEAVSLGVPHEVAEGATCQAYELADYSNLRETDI
Nature of the assay: Adrenergic α1D radioligand binding ([3H]Prozosin). Further details: Inhibition of ligand binding, Adren. alpha1D: concentration or dose not given beside the values. The settings on record: percent inhibition of specific binding. How it is done: Compounds of invention were incubated with 0.6 nM [^3H]Prozosin for 60 minutes at 25° C. Non-specific binding was estimated in the presence of 10 μM phentolamine. Receptor proteins were filtered and washed, the filters were then counted to determine [^3H]Prozosin specifically bound. […] Biochemical assay results are presented as the percent inhibition of specific binding in Table 6.

Assay [6] concerns the target T6, human recombinant serotonin (5-Hydroxytryptamine) 5-HT2A receptor (Homo sapiens, UniProt P28223).
T6 construct: expressed in transfected cells; host or cells: CHO-K1 cells
Put plainly: Serotonin 5-HT2A radioligand binding ([3H]Ketanserin). The settings on record: percent inhibition of specific binding. On the procedure: Compounds of the invention were incubated with 0.5 nM [^3H]Ketanserin for 60 minutes at 25° C. Non-specific binding was estimated in the presence of 1 μM Mianserin. Receptor proteins were filtered and washed, the filters were then counted to determine [^3H]Ketanserin specifically bound. […] Biochemical assay results are presented as the percent inhibition of specific binding in Table 6.

The mark [7] stands for this setting: percent inhibition of specific binding, screened at 1 μM, read-out: Inhibition of ligand binding, Hist. H2.
The mark [8] stands for this setting: percent inhibition of specific binding, screened at 1 μM, read-out: Inhibition of ligand binding, Hist. H1.
Where [9] appears, read: read-out: Histamine Binding H1, percent inhibition of specific binding.

Each structure is given as a SMILES string. Like-named read-outs stand apart in the source and are kept apart here.

T6 sequence (P28223 whole entry): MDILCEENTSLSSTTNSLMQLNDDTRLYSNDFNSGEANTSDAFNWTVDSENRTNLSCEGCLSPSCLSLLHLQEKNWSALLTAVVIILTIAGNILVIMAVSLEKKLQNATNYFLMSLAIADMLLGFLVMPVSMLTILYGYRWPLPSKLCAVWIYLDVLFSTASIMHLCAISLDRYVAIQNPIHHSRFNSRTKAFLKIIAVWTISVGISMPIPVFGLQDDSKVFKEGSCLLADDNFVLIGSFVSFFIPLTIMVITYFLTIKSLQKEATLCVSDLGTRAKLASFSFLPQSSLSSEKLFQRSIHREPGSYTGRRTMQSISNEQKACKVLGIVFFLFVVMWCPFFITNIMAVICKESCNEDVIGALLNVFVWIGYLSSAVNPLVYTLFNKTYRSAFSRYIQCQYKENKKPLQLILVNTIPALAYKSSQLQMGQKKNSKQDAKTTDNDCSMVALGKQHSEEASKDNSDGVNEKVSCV
T2 sequence (P35367 whole entry): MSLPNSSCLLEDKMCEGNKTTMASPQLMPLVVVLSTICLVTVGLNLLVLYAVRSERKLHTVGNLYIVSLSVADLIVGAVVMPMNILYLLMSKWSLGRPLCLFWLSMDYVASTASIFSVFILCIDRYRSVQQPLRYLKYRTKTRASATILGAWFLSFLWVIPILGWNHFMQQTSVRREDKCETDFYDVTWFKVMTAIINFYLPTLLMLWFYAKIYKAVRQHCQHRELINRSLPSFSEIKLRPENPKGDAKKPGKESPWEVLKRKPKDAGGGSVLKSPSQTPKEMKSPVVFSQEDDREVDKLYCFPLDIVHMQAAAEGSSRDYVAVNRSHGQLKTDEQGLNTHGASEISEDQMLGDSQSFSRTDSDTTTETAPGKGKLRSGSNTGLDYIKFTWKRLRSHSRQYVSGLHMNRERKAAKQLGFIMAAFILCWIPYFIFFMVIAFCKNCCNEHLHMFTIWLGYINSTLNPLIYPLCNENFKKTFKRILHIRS
T1 sequence (P25021 whole entry): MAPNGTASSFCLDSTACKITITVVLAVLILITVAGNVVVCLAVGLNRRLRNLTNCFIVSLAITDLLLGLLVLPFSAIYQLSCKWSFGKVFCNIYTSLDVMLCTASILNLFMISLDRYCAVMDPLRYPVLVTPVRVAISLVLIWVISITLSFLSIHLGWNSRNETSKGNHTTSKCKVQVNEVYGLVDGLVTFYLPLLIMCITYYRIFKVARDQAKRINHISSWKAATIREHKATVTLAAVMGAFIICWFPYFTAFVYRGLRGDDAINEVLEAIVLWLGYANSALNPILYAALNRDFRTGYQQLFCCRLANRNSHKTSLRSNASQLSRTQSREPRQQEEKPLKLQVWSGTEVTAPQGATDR
T3 sequence (P14416 whole entry): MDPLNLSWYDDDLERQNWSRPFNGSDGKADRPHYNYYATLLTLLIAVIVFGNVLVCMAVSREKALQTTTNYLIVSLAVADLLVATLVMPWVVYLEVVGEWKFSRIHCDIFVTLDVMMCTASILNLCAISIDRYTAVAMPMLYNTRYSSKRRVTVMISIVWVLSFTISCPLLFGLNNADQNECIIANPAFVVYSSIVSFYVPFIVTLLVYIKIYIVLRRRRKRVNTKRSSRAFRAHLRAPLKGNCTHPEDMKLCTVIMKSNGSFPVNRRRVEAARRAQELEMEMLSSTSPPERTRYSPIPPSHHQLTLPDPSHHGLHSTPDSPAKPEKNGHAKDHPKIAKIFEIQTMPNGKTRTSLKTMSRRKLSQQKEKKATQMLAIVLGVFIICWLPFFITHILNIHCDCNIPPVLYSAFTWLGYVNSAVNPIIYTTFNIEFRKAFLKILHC

Take `CN1CCc2c(c3cc(Cl)ccc3n2CCc2cncc(Cl)c2)C1` [Compound 444, 8-chloro-5-(2-(5-chloropyridin-3-yl)ethyl)-2,3,4,5-tetrahydro-2-methyl-1H-pyrido[4,3-b]indole]: the results for the inhibition at 1 µM in assay [1] (setting [7]) and in assay [2] (setting [8]) were 80% and 101%, respectively. In addition, the “Inhibition of ligand binding, Dop. D2L” value in assay [3] worked out at 32%. In addition, the “Inhibition of ligand binding, Adren. alpha2B” value (“Inhibition … Adren. alpha2B” below) in assay [4] stood at 113%. Also, the “Inhibition of ligand binding, Adren. alpha1D” value (shortened to “Inhibition … Adren. alpha1D”) in assay [5] stood at 91%. In addition, in assay [6], the “Inhibition of ligand binding, Ser. 5-HT2A” value (shortened to “Inhibition … Ser. 5-HT2A”) stood at 95%.
For `Cc1ncc(CCn2c3c(c4cc(Cl)ccc42)CN(C)CC3)cn1` [Compound 361, 8-Chloro-2-methyl-5-[2-(2-methyl-pyrimidin-5-yl)-ethyl]-2,3,4,5-tetrahydro-1H-pyrido[4,3-b]indole], the inhibition at 1 µM in assay [1] (setting [7]) worked out at 25%; in assay [2] (setting [8]) it was 106%. Also, the “Inhibition of ligand binding, Dop. D2L” value in assay [3] amounted to 31%. In assay [4], the “Inhibition … Adren. alpha2B” value is listed as 94%. The “Inhibition … Adren. alpha1D” value in assay [5] was determined as 87%. For the same compound, the “Inhibition … Ser. 5-HT2A” value in assay [6] was 60%.
For `Cc1cncc(CCn2c3c(c4cc(C)ccc42)CN(C)CC3)c1` [Compound 429, 2,3,4,5-tetrahydro-2,8-dimethyl-5-(2-(5-methylpyridin-3-yl)ethyl)-1H-pyrido[4,3-b]indole], the inhibition at 1 µM is 68% in assay [1] (setting [7]) and 100% in assay [2] (setting [8]). Besides, in assay [3], the “Inhibition of ligand binding, Dop. D2L” value came to 23%. In assay [4], the “Inhibition … Adren. alpha2B” value stood at 115%. In assay [5], the “Inhibition … Adren. alpha1D” value was 69%. Besides, in assay [6], the “Inhibition … Ser. 5-HT2A” value is on record as 76%.
Consider `Cc1cnc(CCn2c3c(c4cc(Cl)ccc42)CN(C)CC3)cn1` [Compound 363, 8-Chloro-2-methyl-5-[2-(5-methyl-pyrazin-2-yl)-ethyl]-2,3,4,5-tetrahydro-1H-pyrido[4,3-b]indole], for which the inhibition at 1 µM stood at 31% in assay [1] (setting [7]) and 95% in assay [2] (setting [8]). For the same compound, the “Inhibition of ligand binding, Dop. D2L” value in assay [3] is given as 24%. In addition, the “Inhibition … Adren. alpha2B” value in assay [4] is 104%. In assay [5], the “Inhibition … Adren. alpha1D” value stood at 73%. In assay [6], the “Inhibition … Ser. 5-HT2A” value is recorded as 75%.
Consider `Cc1ccc2c(c1)c1c(n2CCc2cncnc2)CCN(C)C1` [Compound 387, 2,8-Dimethyl-5-(2-pyrimidin-5-yl-ethyl)-2,3,4,5-tetrahydro-1H-pyrido[4,3-b]indole], for which the inhibition at 1 µM is 11% in assay [1] (setting [7]) and 97% in assay [2] (setting [8]). Further, the “Inhibition of ligand binding, Dop. D2L” value in assay [3] came to 1%. For the same compound, the “Inhibition … Adren. alpha2B” value in assay [4] was 95%. In addition, the “Inhibition … Adren. alpha1D” value in assay [5] came out at 47%. Besides, the “Inhibition … Ser. 5-HT2A” value in assay [6] was determined as 54%.
Regarding `CN1CCc2c(c3ccccc3n2CCc2ccccc2)C1` [Compound 2, 2,3,4,5-tetrahydro-2-methyl-5-phenethyl-1H-pyrido[4,3-b]indole], the inhibition at 0.1 µM in assay [1] (0.1 μM compound, 0.1 nM [125I]Aminopotentidine, read-out: Histamine Binding H2, percent inhibition of specific binding) was 34%; in assay [2] (setting [9]), 54%. The inhibition at 0.3 µM in assay [1] (0.3 μM compound, 0.1 nM [125I]Aminopotentidine, read-out: Histamine Binding H2, percent inhibition of specific binding) came out at 56%. The inhibition at 1 µM in assay [1] (1 μM compound, 0.1 nM [125I]Aminopotentidine, read-out: Histamine Binding H2, percent inhibition of specific binding) turned out to be 81%; in assay [1] (setting [7]), 81%; in assay [2] (setting [9]) it was 87%; in assay [2] (read-out: Inhibition of ligand binding, Hist. H1), 87%. Moreover, in assay [2] (setting [9]), the inhibition at 0.03 µM was 31%. Moreover, the “Inhibition of ligand binding, Dop. D2L” value in assay [3] came out at 70%. Moreover, the “Inhibition … Adren. alpha1D” value in assay [5] is given as 72%. In addition, in assay [6], the “Inhibition … Ser. 5-HT2A” value turned out to be 96%.
Take `Cc1cccc2c3c(n(CCc4ccc(C(F)(F)F)nc4)c12)CCN(C)C3` [Compound 380, 5-(2-(6-(trifluoromethyl)pyridin-3-yl)ethyl)-2,3,4,5-tetrahydro-2,6-dimethyl-1H-pyrido[4,3-b]indole]: the values for the inhibition at 1 µM in assay [1] (setting [7]) and in assay [2] (setting [8]) were 69% and 68%, respectively. In addition, the “Inhibition of ligand binding, Dop. D2L” value in assay [3] was −5%. Also, in assay [4], the “Inhibition … Adren. alpha2B” value is given as 103%. Besides, in assay [5], the “Inhibition … Adren. alpha1D” value stood at 73%. For the same compound, the “Inhibition … Ser. 5-HT2A” value in assay [6] is 88%.
Regarding `Cc1ccc2c(c1)c1c(n2CCc2ccc(C(C)C)nc2)CCN(C)C1` [Compound 360, 5-[2-(6-Isopropyl-pyridin-3-yl)-ethyl]-2,8-dimethyl-2,3,4,5-tetrahydro-1H-pyrido[4,3-b]indole], the inhibition at 1 µM in assay [1] (setting [7]) was 75%; in assay [2] (setting [8]) it was 101%. Moreover, the “Inhibition of ligand binding, Dop. D2L” value in assay [3] is given as 37%. For the same compound, the “Inhibition … Adren. alpha2B” value in assay [4] turned out to be 115%. The “Inhibition … Adren. alpha1D” value in assay [5] came to 96%. In addition, the “Inhibition … Ser. 5-HT2A” value in assay [6] is given as 97%.
Take `Cc1ccc2c(c1)c1c(n2CCc2cnccn2)CCN(C)C1` [Compound 62]: the figures for the inhibition at 1 µM in assay [1] (setting [7]) and in assay [2] (setting [8]) were 15% and 93%, respectively. In addition, the “Inhibition of ligand binding, Dop. D2L” value in assay [3] was −3%. For the same compound, the “Inhibition … Adren. alpha2B” value in assay [4] stood at 90%. Besides, the “Inhibition … Adren. alpha1D” value in assay [5] stood at 51%. The “Inhibition … Ser. 5-HT2A” value in assay [6] is 85%.
For the compound `CN1CCc2c(c3cc(Cl)ccc3n2CCn2cccc2)C1` [Compound 349, 8-Chloro-2-methyl-5-(2-pyrrol-1-yl-ethyl)-2,3,4,5-tetrahydro-1H-pyrido[4,3-b]indole], the values for the inhibition at 1 µM in assay [1] (setting [7]) and in assay [2] (setting [8]) were 94% and 111%, respectively. Further, the “Inhibition of ligand binding, Dop. D2L” value in assay [3] turned out to be 86%. The “Inhibition … Adren. alpha2B” value in assay [4] is 111%. For the same compound, the “Inhibition … Adren. alpha1D” value in assay [5] is reported as 100%. Besides, the “Inhibition … Ser. 5-HT2A” value in assay [6] was 97%.
Regarding `Cc1ccc2c(c1)c1c(n2CC(=O)N2CCCC2)CCN(C)C1` [Compound 257, 2-(1,2,3,4-tetrahydro-2,8-dimethylpyrido[4,3-b]indol-5-yl)-1-(pyrrolidin-1-yl)ethanone], the results for the inhibition at 1 µM in assay [1] (setting [7]) and in assay [2] (setting [8]) were 1% and 64%, respectively. Moreover, the “Inhibition of ligand binding, Dop. D2L” value in assay [3] was −7%. Also, in assay [4], the “Inhibition … Adren. alpha2B” value worked out at 20%. Moreover, the “Inhibition … Adren. alpha1D” value in assay [5] turned out to be 3%.
